Laboratory results from PMC4763238, “Resveratrol induces autophagy by directly inhibiting mTOR through ATP competition” (Scientific Reports, 2016).

Molecular target: T1, mTOR (Homo sapiens, UniProt P42345)
T1 construct: GST-tagged recombinant fragment mTOR, some regulatory domains deleted, intact kinase domain; also immunoprecipitated full-length HA-mTOR
Assay: in vitro kinase assay (GST-S6K or 4E-BP1 phosphorylation), with ATP competition and a resistant mutant
Type: biochemical

T1 sequence (P42345 1360-2549): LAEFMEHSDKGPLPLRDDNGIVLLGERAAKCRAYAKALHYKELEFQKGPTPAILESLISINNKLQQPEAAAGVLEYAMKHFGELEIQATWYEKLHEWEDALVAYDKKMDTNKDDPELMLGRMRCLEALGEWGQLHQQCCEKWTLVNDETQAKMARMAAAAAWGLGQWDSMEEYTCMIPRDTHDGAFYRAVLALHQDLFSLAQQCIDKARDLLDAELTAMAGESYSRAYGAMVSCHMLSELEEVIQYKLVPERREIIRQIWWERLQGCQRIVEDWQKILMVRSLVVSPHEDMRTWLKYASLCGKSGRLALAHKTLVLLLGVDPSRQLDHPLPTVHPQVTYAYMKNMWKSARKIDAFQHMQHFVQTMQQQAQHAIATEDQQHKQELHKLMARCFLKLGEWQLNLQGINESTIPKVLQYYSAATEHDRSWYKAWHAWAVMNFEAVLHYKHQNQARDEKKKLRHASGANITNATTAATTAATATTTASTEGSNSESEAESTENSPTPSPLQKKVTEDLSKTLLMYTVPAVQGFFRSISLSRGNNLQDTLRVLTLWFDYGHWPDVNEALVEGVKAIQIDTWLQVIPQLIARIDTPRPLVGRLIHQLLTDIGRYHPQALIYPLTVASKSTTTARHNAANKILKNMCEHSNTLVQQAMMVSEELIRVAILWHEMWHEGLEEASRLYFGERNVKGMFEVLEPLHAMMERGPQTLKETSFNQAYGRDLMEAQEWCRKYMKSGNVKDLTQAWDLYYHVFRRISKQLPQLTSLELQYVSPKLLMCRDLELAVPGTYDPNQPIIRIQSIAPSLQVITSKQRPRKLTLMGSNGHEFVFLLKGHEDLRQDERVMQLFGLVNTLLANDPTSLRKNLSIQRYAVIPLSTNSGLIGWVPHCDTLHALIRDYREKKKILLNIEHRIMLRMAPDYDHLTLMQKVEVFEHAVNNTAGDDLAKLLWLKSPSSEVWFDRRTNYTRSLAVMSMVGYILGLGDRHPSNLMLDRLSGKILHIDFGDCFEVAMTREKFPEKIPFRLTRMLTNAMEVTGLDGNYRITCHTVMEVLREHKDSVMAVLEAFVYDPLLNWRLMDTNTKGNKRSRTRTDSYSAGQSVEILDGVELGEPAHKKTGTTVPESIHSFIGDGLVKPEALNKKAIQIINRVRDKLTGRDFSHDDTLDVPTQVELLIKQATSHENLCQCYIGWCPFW

Question: `Oc1ccc(/C=C/c2cc(O)cc(O)c2)cc1` [resveratrol, 3,40,5-trihydroxy-trans-stilbene] was tested. Which IC50 did it give?
Answer: ~10 µM
